Measurements published in PubChem BioAssay AID1996.
In brackets after ≈: the same amount, converted by molar mass.

Details: buffer; pH 7.4; 200.0 µM

| Structure (SMILES) | solubility kinetic |
| --- | --- |
| O=C(Nc1ccccc1Cl)Nc1cccc2cccnc12 | < 0.2 µg/mL |
| CCOCc1[nH]c(=S)[nH]c(=O)c1Cc1ccc(OC(C)C)cc1 | > 50.2 µg/mL |
| O=c1c([N+](=O)[O-])c(O)c2cccc3c2n1CCC3 | 36.3 µg/mL (≈ 147 µM) |
| CC(C)c1onc(C(=O)Nc2ccc3c(c2)OCO3)c1[N+](=O)[O-] | > 47.9 µg/mL |
| C=CCSc1ncc(CO)n1Cc1ccccc1 | 37.9 µg/mL (≈ 146 µM) |
| Cl.N=C(N)SCP(=O)(c1ccccc1)c1ccccc1 | > 49 µg/mL |
| O=C(Nc1ccc2ccccc2n1)c1ccc(Cl)cc1 | < 0.3 µg/mL |
| Cc1ccc(C(=O)O/N=C(\N)Cc2cccs2)cc1[N+](=O)[O-] | 39.9 µg/mL (≈ 125 µM) |
| COc1ccccc1NC(=O)N1CCN(CCc2ccccc2)CC1 | 50.7 µg/mL (≈ 149 µM) |
| Nc1ccc(C(=O)Nc2ccccc2N)cc1 | > 34.1 µg/mL |
| OCc1nc2ccccc2n1CCc1ccccc1 | 36.1 µg/mL (≈ 143 µM) |
| O=[N+]([O-])/C=C/c1ccc2c(ccn2Cc2ccccc2)c1 | 0.6 µg/mL (≈ 2.16 µM) |
| Cc1cc(Br)ccc1N=C1NC(=O)CS1 | > 42.8 µg/mL |
| COc1ccc(C)cc1S(=O)(=O)N1CCCCCC1 | 40.7 µg/mL (≈ 144 µM) |
| CN(c1ccccc1)c1nc(N)c([N+](=O)[O-])c(Nc2ccccc2)n1 | < 0.1 µg/mL |
| CCCCOc1ccc(C2C(C(=O)c3ccc(C)o3)=C(O)C(=O)N2Cc2ccco2)cc1 (stereo not given) | 46.9 µg/mL (≈ 108 µM) |
| Cc1ccccc1OCC(=O)NC1CCCCCCC1 | 4.2 µg/mL (≈ 15.3 µM) |
| O=C(NCC(=O)N1CCCCCC1)c1ccc(OC(F)F)cc1 | > 49 µg/mL |
| Cc1ccccc1NC(=O)COC(=O)[C@@H]1CCCN1C(=O)c1cccs1 | > 55.9 µg/mL |
| CCCc1nc(SC)[nH]c(=O)c1C | > 29.7 µg/mL |

| Structure (SMILES) | solubility kinetic |
| --- | --- |
| c1ccc2[nH]c(-c3ccc4c(c3)OCO4)nc2c1 | 34.4 µg/mL (≈ 144 µM) |
| CCOc1ncccc1C(=O)NCCCSc1ccccc1 | 34.2 µg/mL (≈ 108 µM) |
| O=C(O)c1ccccc1Nc1ccnc(C(F)(F)F)c1 | > 42.3 µg/mL |
| CC(=O)NC1C(=O)N(Cc2ccccc2)c2ccc(Br)cc21 (stereo not given) | 18 µg/mL (≈ 50.1 µM) |
| COCCNC(=O)c1cccc(NC(=O)C2=C(C)OCCS2)c1 | > 50.5 µg/mL |
| O=C(c1ccc([N+](=O)[O-])s1)N1CCc2ccccc2C1 | 2.8 µg/mL (≈ 9.71 µM) |
| O=C(/C=C/c1cccc(F)c1)OCC(=O)N1CCCC1 | > 41.6 µg/mL |
| Cc1ccsc1CNC1CCCCC1 | 24.1 µg/mL (≈ 115 µM) |
| O=S(=O)(c1cccc(F)c1)N1CCN(c2nc(-c3cccnc3)nc3ccccc23)CC1 | 1.2 µg/mL (≈ 2.67 µM) |
| Cl.O=C(NC1CCCCC1)N1CCNCC1 | > 37.2 µg/mL |
| COc1ccccc1NS(=O)(=O)c1ccc(C)c(C(=O)N2CCN(c3ccc(O)cc3)CC2)c1.Cl | > 77.7 µg/mL |
| CC(C)[C@H](NC(=O)c1ccccc1)C(=O)OCC(=O)Nc1sccc1C(N)=O | 19 µg/mL (≈ 47.1 µM) |
| CCOC(=O)N1CCN(C(=O)COC(=O)c2ccc(O)cc2O)CC1 | > 52.9 µg/mL |
| Cc1cc(C)n2ncc(C(=O)O)c2n1 | > 28.7 µg/mL |
| Cc1cccc(C)c1C(=NCCN(C)C)c1ccccc1.Cl | > 53 µg/mL |
| Cc1nn(CC(=O)N2CCN(C)CC2)c(=O)c2ccccc12 | > 45.1 µg/mL |
| COc1ccc(NC(=O)c2ccc3c(c2)NC(=O)CS3)cc1 | 10.8 µg/mL (≈ 34.4 µM) |
| Cc1nc(N2CCOCC2)[nH]c(=O)c1C | > 31.4 µg/mL |
| CN(C)C(=O)c1cc(C(=O)c2ccc(F)cc2C(F)(F)F)c[nH]1 | 12.6 µg/mL (≈ 38.4 µM) |
| CC(=O)Nc1ccc(NC(=O)C(C)Sc2nnc(-c3ccc4c(c3)OCO4)o2)cc1 (stereo not given) | > 64 µg/mL |

| Structure (SMILES) | solubility kinetic |
| --- | --- |
| CCCCn1c(N)c(N(CCOC)C(=O)CSc2nnc(-c3ccco3)n2CC)c(=O)[nH]c1=O | > 73.7 µg/mL |
| COc1ccc(Cl)cc1NC(=O)C1CCN(S(C)(=O)=O)CC1 | > 52 µg/mL |
| CC1(C)CC(=O)C=C(Nc2cccc(F)c2)C1 | > 35 µg/mL |
| Clc1ccc(-c2csc(Nc3cccnc3)n2)cc1 | 0.3 µg/mL (≈ 1.04 µM) |
| Cc1ccc(S(=O)(=O)NCC(=O)OCC(=O)N2CC(=O)Nc3ccccc32)cc1 | > 62.6 µg/mL |
| COc1ccc(OCC(O)CN2CC(C)OC(C)C2)cc1.Cl (stereo not given) | > 49.8 µg/mL |
| O=C(O)c1cncc(SCc2ccccc2)n1 | 34.5 µg/mL (≈ 140 µM) |
| O=C(Nc1ccc(NS(=O)(=O)c2ccccc2)cc1)c1ccccc1Cl | 6.1 µg/mL (≈ 15.8 µM) |
| Cc1ccc(C(=O)Nc2cccc(NC(=O)c3cccs3)c2)c(C)c1 | 0.6 µg/mL (≈ 1.71 µM) |
| CCc1c(C(=O)OCc2ccccc2)[nH]c(C)c1C | 1.3 µg/mL (≈ 5.05 µM) |
| COc1cccc(N2C(=O)/C(=C/c3ccc(C)o3)C(=O)NC2=S)c1 | > 51.4 µg/mL |
| COC(=O)c1sccc1N/C=C(\C#N)S(=O)(=O)C(C)(C)C | 2.3 µg/mL (≈ 7 µM) |
| Cc1nnc(SCC(=O)NC2CCCCC2)n1N | > 40.4 µg/mL |
| Brc1c(-c2ccc3c(c2)OCO3)nc2ncccn12 | 38.8 µg/mL (≈ 122 µM) |
| Cc1onc(NC(=O)CSCC(=O)O)c1Br | > 46.4 µg/mL |
| CNc1cc(=O)n(C)c(=O)n1-c1ccccc1 | > 34.7 µg/mL |
| CSc1ncccc1C(=O)NCc1nnc2ccccn12 | > 44.9 µg/mL |
| COC(=O)c1ccc(C(=O)OC)c(NC(=S)N2CCCC(CO)C2)c1 (stereo not given) | 50.9 µg/mL (≈ 139 µM) |
| c1csc(-c2noc(CN3CCOCC3)n2)c1 | 36.6 µg/mL (≈ 146 µM) |
| Cc1ccc(NC(=O)CCc2ccccc2)cc1S(=O)(=O)N1CCOCC1 | 56.7 µg/mL (≈ 146 µM) |
